From article PMC12452633 (RSC Medicinal Chemistry, 2025)

Assays:
Ku70–Ku80 = Ku70–Ku80 (Homo sapiens, UniProt P12956+P13010); assay: nano Differential Scanning Fluorometry; format: binding; conditions: 0 to 25 μM ligand
DNA-PK = DNA-PK (Homo sapiens, UniProt P12956+P13010); assay: DNA-PK phosphoryl-transferase catalytic; format: biochemical
Ku70/80 = Ku70/80 (Homo sapiens, UniProt P12956+P13010); assay: Ku–DNA binding EMSA; conditions: for IC50: Ku70/80 (IC50), purified Ku70/80, direct DNA binding activity by EMSA
Ku70/80 protein = conditions: gel-based TSA; cited from earlier work
NHEJ = conditions: earlier report; cited from earlier work
p53 phosphorylation = conditions: through p53 phosphorylation, ATM pathway activation; cited from earlier work

Sequence of DNA-PK (P12956 whole entry): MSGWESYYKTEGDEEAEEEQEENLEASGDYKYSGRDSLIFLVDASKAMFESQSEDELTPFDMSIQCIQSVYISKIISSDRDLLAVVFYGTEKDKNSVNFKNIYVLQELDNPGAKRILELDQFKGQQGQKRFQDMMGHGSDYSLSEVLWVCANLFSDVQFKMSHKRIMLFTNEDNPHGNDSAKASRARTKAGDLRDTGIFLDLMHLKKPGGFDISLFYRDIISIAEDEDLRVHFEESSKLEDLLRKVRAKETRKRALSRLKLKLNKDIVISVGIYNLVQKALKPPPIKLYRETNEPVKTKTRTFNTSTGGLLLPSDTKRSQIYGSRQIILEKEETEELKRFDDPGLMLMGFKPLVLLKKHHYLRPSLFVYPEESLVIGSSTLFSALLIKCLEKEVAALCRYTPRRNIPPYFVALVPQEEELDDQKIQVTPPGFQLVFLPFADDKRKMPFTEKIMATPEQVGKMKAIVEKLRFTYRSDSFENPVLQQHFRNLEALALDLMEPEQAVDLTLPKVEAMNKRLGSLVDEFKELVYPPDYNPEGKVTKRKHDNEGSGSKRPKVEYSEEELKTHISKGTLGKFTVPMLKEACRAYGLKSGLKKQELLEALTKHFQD
Sequence of DNA-PK (P13010 whole entry): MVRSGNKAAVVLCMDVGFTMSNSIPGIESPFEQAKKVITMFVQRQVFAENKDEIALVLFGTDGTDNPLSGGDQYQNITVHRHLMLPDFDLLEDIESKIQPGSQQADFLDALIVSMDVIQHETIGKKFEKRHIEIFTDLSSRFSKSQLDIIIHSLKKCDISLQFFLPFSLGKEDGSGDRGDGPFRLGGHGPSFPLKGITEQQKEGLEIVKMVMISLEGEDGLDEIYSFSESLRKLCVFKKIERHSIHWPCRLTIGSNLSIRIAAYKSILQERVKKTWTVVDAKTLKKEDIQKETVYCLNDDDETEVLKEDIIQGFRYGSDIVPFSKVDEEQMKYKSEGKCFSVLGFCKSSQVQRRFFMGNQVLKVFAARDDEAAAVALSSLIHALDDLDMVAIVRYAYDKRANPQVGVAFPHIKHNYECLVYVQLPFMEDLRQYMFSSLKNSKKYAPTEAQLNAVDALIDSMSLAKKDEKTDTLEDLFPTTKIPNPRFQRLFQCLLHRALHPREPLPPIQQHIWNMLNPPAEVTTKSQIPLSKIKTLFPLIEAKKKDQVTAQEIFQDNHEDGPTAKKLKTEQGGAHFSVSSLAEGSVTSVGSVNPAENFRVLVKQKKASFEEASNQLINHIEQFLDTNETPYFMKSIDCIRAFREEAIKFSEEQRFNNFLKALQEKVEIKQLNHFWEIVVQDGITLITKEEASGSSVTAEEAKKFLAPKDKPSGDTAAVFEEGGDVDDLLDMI
Sequence of Ku70/80 (P12956 whole entry): as the sequence (P12956 whole entry) above
Sequence of Ku70/80 (P13010 whole entry): as the sequence (P13010 whole entry) above
Sequence of Ku70–Ku80 (P12956 whole entry): as the sequence (P12956 whole entry) above
Sequence of Ku70–Ku80 (P13010 whole entry): as the sequence (P13010 whole entry) above

Structure (SMILES) | IC50 (DNA-PK) [µM] | IC50 (Ku70/80) [µM] | other results
COc1cccc(NC(=O)c2cc(-c3ccc(CC4C(=O)N(c5cccc(C(=O)O)c5)N=C4C)o3)ccc2Cl)c1 (stereo not drawn) [53 (149), 3-(4-((5-(4-chloro-3-((3-methoxyphenyl)carbamoyl)phenyl)furan-2-yl)methyl)-3-methyl-5-oxo-4,5-dihydro-1H-pyrazol-1-yl)benzoic acid] |  |  | shift in thermal stability (qualitative) (Ku70–Ku80): concentration-dependent induction of a shift in thermal stability
CC1=NN(c2ccc(S(N)(=O)=O)cc2)C(=O)/C1=C\c1ccc(-c2ccc(Cl)c(C(=O)NCc3ccc(F)cc3)c2)o1 [Compound 69, (Z)-2-Chloro-N-(4-fluorobenzyl)-5-(5-((3-methyl-5-oxo-1-(4-sulfamoylphenyl)-1,5-dihydro-4H-pyrazol-4-ylidene)methyl)furan-2-yl)benzamide] | 1.53 ± 0.22 | 20.7 ± 1.84 | 
COc1cccc(NC(=O)c2cc(-c3ccc(CC4C(=O)N(c5ccc(S(N)(=O)=O)cc5)N=C4C)o3)ccc2Cl)c1 (stereo not drawn) [Compound 70, 2-chloro-N-(3-methoxyphenyl)-5-(5-((3-methyl-5-oxo-1-(4-sulfamoylphenyl)-4,5-dihydro-1H-pyrazol-4-yl)methyl)furan-2-yl)benzamide] | 0.57 ± 0.12 | 7.86 ± 4.4 | increase in DNA-PK activity (DNA-PK; compared with compound 67): 1–2.5 fold; increase in Ku inhibitory activity (Ku70/80; compared with compound 67): 1–2.5 fold
COc1cccc(NC(=O)c2cc(-c3ccc(/C=C4\C(=O)N(c5cccc(-c6nnn[nH]6)c5)N=C4C)o3)ccc2Cl)c1 [Compound 75, (Z)-5-(5-((1-(3-(1H-tetrazol-5-yl)phenyl)-3-methyl-5-oxo-1,5-dihydro-4H-pyrazol-4-ylidene)methyl)furan-2-yl)-2-chloro-N-(3-methoxyphenyl)benzamide] | 0.98 ± 0.52 | 3.51 ± 1.81 | 
COc1cccc(NC(=O)c2cc(-c3ccc(CC4C(=O)N(c5cccc(-c6nnn[nH]6)c5)N=C4C)o3)ccc2Cl)c1 (stereo not drawn) [Compound 76 (245), 5-(5-((1-(3-(1H-tetrazol-5-yl)phenyl)-3-methyl-5-oxo-4,5-dihydro-1H-pyrazol-4-yl)methyl)furan-2-yl)-2-chloro-N-(3-methoxyphenyl)benzamide] |  |  | direct interaction with Ku70/80 protein (Ku70/80 protein): directly interacts with the Ku70/80 protein; effect in CRISPR gene-editing model (NHEJ): inhibiting NHEJ and activating homologous recombination to increase the efficiency of gene insertion; potentiation of cellular effects of bleomycin and IR (p53 phosphorylation): potentiates the cellular effects of bleomycin and IR
